Earlier results on 1 molecule are cited in patent publication US20220160665A1, “COMPOSITION IN MICRO-ENCAPSULATED FORM, BASED ON N-BUTYRICACID OR DERIVATIVES THEREOF, FOR TREATING CROHNS DISEASE OR ULCERATIVE RECTAL COLITIS” (SILA S.R.L., priority 2019, published 2022).

The conditions of this data set: solid granular form, white-coloured powder, commercially available.

For `CCCC(=O)[O-].[Na+]` [sodium salt of the n-butyric acid], the “temperature up to which stable” value was “up to 250 °C”.
